{"source": "patent US9765115B2", "about": "“Inhibitors of metastasis, methods of generating such inhibitors and their therapeutic applications” (Board of Supervisors of Louisiana State University acting …, priority 2011, dated 2017)", "type_in_all_cases": "cell-based", "key": {"[1]": {"system": "PC-3CTRΔESS cells", "assay": "Matrigel in vitro invasion assay", "conditions": "50 nM CT, 48 h", "description": "(§1) Invasion experiments were conducted in Matrigel™ invasion chambers as previously described (Sabbisetti et al., 2005).\nCT increases invasiveness, and even induces an invasive phenotype in non-invasive prostate cancer cells. The role of PDZ-binding motif in CT-stimulated invasion was examined. FIG. 2C depicts CTR-C PDZ-binding motif mutation and effects on cell invasion. PC-3V, PC-3 CTRwt and PC-3 CTRΔESS cells were added to upper insert of invasion chambers with or without 50 nM CT, and cells that passed through the Matrigel™ barrier were counted after 48 h. The results are expressed as mean number of invaded cells per 400× field ±SEM (n=6; *p<0.05 (PC-3V v PC-3CTR-wt); $ p<0.05 (PC-3CTR-wt v PC-3CTRΔESS); $$-p<0.05 (PC-3CTRwt+CT v PC-3CTRΔESS+CT) (one-way ANOVA and Newman-Keul's test)). Expression of CTRwt in PC-3 cells increased invasion by 2.5-fold (FIG. 2C)."}, "[2]": {"system": "PC-3CTRwt cells", "assay": "Paracellular permeability (PCP), TRITC-dextran diffusion", "description": "For PCP measurements, cells were grown to confluence on Transwell filters. Tetra methyl rhodamine-dextran (1 mg/ml, ˜4 kDa, Sigma) was added to the upper chamber. Fluorescence of the lower chamber medium was measured in Modulus Microplate Reader (Turner Biosystems) at various time intervals.\nTJs form a barrier that regulates the movement of ions, solutes and growth factors between cells. To detect whether CT affects the barrier, the diffusion of fluorophore-conjugated dextran was measured across polarized PC cell line monolayers, a procedure called paracellular permeability (PCP). FIG. 2B depicts CTR-C PDZ-binding motif mutation and tight junction (TJ) disruption as measured using PCP. Polarized PC-3V, PC-3-CTRwt and PC-3CTRΔESS cells were treated with or without 50 nM CT, and PCP determined by diffusion of ˜4 kDa TRITC-conjugated dextran from the upper to the lower chamber in one hour. The results are expressed as μg/ml/hour of TRITC-Dextran diffused ±SEM (n=6; *p<0.05 (−CT v +CT, One way ANOVA and Newman-Keul's test)). […]\nThe effect of CT on TJ functionality was tested by monitoring TER of PC-3CTRwt monolayers. […] TER was measured with EVOM volt-ohm meter. The results are expressed as TER ±SEM (Ωcm^2±SEM; n=6). […] PCP was determined by diffusion of ˜4 kDa TRITC-conjugated dextran from the upper to the lower chamber in one hour. […]"}, "[3]": {"system": "LNCaP, DU-145 and PC-3M cells", "assay": "Matrigel in vitro invasion assay", "conditions": "50 nM CT, 48 h", "description": "as §1\nWhether CT produces similar effects in LNCaP, PC-3M and DU-145 cell lines, which endogenously express CTR, was examined as shown in FIG. 1A. FIGS. 9A-9B depict the effect of CT on tight junction (TJ) disruption as measured using TER and PCP in the three prostate cancer cell lines—LNCaP, PC-3M, and DU-145. Cells were serum-starved for 4 hours, then treated with and without 50 nM CT, before measuring TER as described above. In FIG. 9B, cells were treated with and without 50 nM CT, and PCP determined by diffusion of ˜4 kDa TRITC-conjugated dextran from the upper to the lower chamber in one hour. The results are expressed as μg/ml/hour of TRITC-Dextran diffused ±SEM (n=6; *p<0.05 (−CT v +CT, One way ANOVA and Newman-Keul's test)). FIG. 9C depicts effects of CT on cell invasion in the same three cell lines—PC-3M, LNCaP, and DU145. Cells were added to upper insert of invasion chambers with or without 50 nM CT, and cells that passed through the Matrigel™ barrier were counted after 48 h. The results are expressed as mean number of invaded cells per 400× field ±SEM (n=6; *p<0.05)."}}, "note": "Entries after “also recorded” stand apart in the source; their conditions may differ.", "data": [{"substance": "calcitonin [CT]", "values": [{"measurement": "increase in invasion", "setting": "[1]", "result": "did not"}, {"measurement": "PCP", "setting": "[2]; 50 nM CT", "result": "increased PCP significantly; also recorded: eighty percent"}, {"measurement": "PCP at multiple CT doses", "setting": "[2]; CT doses of 10 nM or higher", "result": "induced an increase"}, {"measurement": "invasion", "setting": "[3]", "result": "significantly increased"}]}]}
